From ChEMBL document CHEMBL5331063, “Recent advances of β-catenin small molecule inhibitors for cancer therapy: Current development and future perspectives” (Eur J Med Chem, 2022)
Each block holds one compound with its values, some of them ahead of it.

Legend:
TCF4-CTNNB1 complex [1] = target: T1, TCF4-CTNNB1 complex (Homo sapiens, UniProt P35222+Q9NQB0); assay: Inhibition of human beta-Catenin/GST-tagged TCF4 (unknown origin) protein-protein interaction incubated for 2 hrs by ELISA assay; format: protein-complex assay
T1 sequence (P35222 whole entry): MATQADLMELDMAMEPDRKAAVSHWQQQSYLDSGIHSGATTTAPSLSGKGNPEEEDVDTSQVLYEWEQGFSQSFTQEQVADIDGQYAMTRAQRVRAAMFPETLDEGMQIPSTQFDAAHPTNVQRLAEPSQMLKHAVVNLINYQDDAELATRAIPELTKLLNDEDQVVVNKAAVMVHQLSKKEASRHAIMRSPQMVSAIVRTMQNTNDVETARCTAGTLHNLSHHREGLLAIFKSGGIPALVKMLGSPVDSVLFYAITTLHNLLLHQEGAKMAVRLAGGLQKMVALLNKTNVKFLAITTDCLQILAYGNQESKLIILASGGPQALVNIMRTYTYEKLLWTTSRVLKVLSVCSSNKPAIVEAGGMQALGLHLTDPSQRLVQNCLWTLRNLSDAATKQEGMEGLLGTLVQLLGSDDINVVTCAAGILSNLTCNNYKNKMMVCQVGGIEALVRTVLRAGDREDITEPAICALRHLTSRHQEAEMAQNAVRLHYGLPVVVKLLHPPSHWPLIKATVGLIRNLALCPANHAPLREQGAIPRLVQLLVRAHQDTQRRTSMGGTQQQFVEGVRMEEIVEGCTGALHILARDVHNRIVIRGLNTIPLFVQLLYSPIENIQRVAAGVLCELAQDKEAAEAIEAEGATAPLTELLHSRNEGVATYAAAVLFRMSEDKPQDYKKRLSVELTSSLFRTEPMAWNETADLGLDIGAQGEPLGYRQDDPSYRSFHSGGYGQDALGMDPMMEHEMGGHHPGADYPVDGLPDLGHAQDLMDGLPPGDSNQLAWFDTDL
T1 sequence (P15884 whole entry): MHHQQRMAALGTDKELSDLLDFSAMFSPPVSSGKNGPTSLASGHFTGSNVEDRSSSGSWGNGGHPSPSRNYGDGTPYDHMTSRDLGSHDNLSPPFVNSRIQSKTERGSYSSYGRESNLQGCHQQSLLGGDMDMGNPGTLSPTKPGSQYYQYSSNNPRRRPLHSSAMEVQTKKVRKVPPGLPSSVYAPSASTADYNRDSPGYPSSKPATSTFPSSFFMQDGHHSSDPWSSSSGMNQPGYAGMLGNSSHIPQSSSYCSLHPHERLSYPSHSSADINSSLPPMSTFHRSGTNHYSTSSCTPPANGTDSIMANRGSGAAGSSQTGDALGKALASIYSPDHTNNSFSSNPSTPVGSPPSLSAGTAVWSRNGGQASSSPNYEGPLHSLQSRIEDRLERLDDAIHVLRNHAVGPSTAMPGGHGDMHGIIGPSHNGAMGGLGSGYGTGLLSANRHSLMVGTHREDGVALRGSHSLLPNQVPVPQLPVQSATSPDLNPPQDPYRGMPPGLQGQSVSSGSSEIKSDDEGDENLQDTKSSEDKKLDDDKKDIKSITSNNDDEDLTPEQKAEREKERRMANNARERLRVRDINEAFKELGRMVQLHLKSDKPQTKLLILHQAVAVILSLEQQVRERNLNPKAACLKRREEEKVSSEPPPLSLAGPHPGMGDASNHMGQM

TCF4-CTNNB1 complex [2] = target: T1, TCF4-CTNNB1 complex; assay: Inhibition of beta-Catenin/GST-tagged TCF4 protein-protein interaction in human HCT-116 cells incubated for 24 hrs by immunoprecipitation assay; format: cell-based
SW480 = assay: Antiproliferative activity against human SW480 cells assessed as inhibition of cell growth by MTS assay; format: functional, cell-based
[3] = Inhibition of human beta-Catenin (138 to 686 residues)/C-terminal fluorescein-labeled human APC (1477 to 1519 residues) protein-protein interaction assessed as inhibition constant incubated for 30 mins by fluorescence polarization assay
[4] = target: T2, Catenin beta-1/Cadherin-1 (Homo sapiens, UniProt P35222); assay: Inhibition of His6-tagged human beta-Catenin (138 to 686 residues)/C-terminal fluorescein-labeled human E-cadherin (819 to 873 residues) protein-protein interaction assessed as inhibition constant by AlphaScreen competitive assay
T2 sequence (P35222 whole entry): T1 sequence (P35222 whole entry)
T2 sequence (P12830 whole entry): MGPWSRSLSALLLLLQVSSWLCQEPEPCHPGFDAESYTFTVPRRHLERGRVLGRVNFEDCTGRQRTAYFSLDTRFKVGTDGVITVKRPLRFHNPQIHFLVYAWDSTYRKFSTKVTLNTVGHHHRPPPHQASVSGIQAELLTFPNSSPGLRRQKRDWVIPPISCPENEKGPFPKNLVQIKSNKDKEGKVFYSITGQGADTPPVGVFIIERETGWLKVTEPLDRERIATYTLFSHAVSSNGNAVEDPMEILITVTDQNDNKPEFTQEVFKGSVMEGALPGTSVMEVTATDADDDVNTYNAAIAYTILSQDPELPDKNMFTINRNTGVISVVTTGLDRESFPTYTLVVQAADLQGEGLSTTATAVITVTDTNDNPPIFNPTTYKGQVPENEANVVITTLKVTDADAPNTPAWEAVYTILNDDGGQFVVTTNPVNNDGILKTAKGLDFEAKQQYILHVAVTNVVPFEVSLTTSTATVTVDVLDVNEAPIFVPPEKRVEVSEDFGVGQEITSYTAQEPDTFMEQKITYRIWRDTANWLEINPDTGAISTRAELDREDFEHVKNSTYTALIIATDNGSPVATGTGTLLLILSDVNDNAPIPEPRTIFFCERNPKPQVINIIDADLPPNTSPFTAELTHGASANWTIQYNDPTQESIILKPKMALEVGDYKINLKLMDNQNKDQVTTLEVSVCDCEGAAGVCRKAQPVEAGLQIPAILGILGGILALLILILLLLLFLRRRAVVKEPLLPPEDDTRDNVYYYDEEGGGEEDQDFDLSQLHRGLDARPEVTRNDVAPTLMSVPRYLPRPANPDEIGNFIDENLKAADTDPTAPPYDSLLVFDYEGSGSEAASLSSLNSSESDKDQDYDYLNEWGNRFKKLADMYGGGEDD

TCF4-CTNNB1 complex [5] = target: T3, TCF4-CTNNB1 complex (Homo sapiens, UniProt P15884+P35222); assay: Inhibition of beta-Catenin (301 to 670 residues)/TCF4 protein-protein interaction in human HCT-116 cells incubated for 20 hrs by TOPFLASH luciferase reporter assay; format: cell-based
T3 sequence (P35222 whole entry): T1 sequence (P35222 whole entry)
T3 sequence (P15884 whole entry): T1 sequence (P15884 whole entry)

[6] = Inhibition of Wnt1 signalling in human SW480 cells expressing ST-Luc incubated for 24 hrs by luciferase reporter assay; format: cell-based; conditions: SW480, 24 h
TCF4-CTNNB1 complex [7] = target: T1, TCF4-CTNNB1 complex; assay: Inhibition of beta-Catenin/TCF4 (unknown origin) protein-protein interaction; format: protein-complex assay

SMILES: COC(=O)c1c(C)cc2c(c1O)[C@]1(O)C(=O)c3cc4c(c(O)c3C(=O)[C@]1(OC)[C@H](O)C2)C(=O)C=C(N[C@@H]1O[C@H](C)[C@@H](OC)[C@H](O)[C@@H]1OC)C4=O
IC50 (TCF4-CTNNB1 complex [1]): 640 nM

SMILES: COc1c(CC(C)OC(=O)Oc2ccc(O)cc2)c2c3c(CC(C)OC(=O)c4ccccc4)c(OC)c(=O)c4c(O)cc(OC)c(c5c(OC)cc(O)c(c1=O)c52)c43 (stereo not drawn)
IC50 (TCF4-CTNNB1 complex [2]): 10 µM

IC50 (SW480): 232 µM | Ki [3]: 86.6 µM
SMILES: COC(=O)[C@H](CCC(=O)O)NC(=O)[C@H](CC(=O)O)NC(=O)[C@H](Cc1ccc2ccccc2c1)NC(=O)Cc1cc2cc(Cl)ccc2[nH]1

SMILES: O=C(Nc1ccc(O[C@H]2CCNC2)c(-c2ccc(F)cc2)c1)c1ccc(O[C@H]2CCNC2)c(-c2ccc(F)c(F)c2)c1
Ki [4]: 260 µM

IC50 (TCF4-CTNNB1 complex [5]): 583 nM
SMILES: COC(=O)c1cccc(NS(=O)(=O)c2ccc(C)cc2)c1

IC50 [6]: 600 nM
SMILES: C=C1C(=O)[C@@]23[C@H](O)C[C@@H]4C(C)(C)CC[C@H](O)[C@@]4(COC(C)=O)[C@@H]2CC[C@H]1[C@H]3O

SMILES: C[C@H]1[C@H]2N(C(=O)CN(C)N2C(=O)NCc2ccccc2)[C@@H](Cc2ccc(OP(=O)(O)O)cc2)C(=O)N1Cc1cccc2cccnc12
IC50 (TCF4-CTNNB1 complex [7]): 150 nM
